# Data published in patent US20060013906A1, “Anti-helicobacter activity of celery seed extract” (priority 2002, published 2006).
# Tested on: H. pylori (strain 3339)
# Experiment: Broth dilution antimicrobial test, H. pylori strain 3339
# Type: cell-based, Helicobacter pylori
# Conditions: compounds from subfractions 6 and 10
Compound,MBC [µg/mL],MIC [µg/mL]
α and β-Eudesmol,125,15.6
"CCCCC1OC(=O)c2ccccc21 (stereo not shown) [3-n Butyl phthalide, 3-n-butyl phthalide]",,15.6
"CCCCC1OC(=O)C2=C1CCC=C2 (stereo not shown) [sedanenolide, 3-n-butyl 4,5-dihydrolphthalide]",62.5,31.2
"CCCCC/C=C/C/C=C/CCCCCCCC(=O)O [Linoleic acid, cis, cis - 9,12- Octadecadienoic acid]",> 125,62.5
